From patent US20260116921A1, “PEPTIDE INHIBITORS OF INTERLEUKIN-23 RECEPTOR AND THEIR USE TO TREAT INFLAMMATORY DISEASES” (priority 2018, published 2026)
pIC50: −log10 of the molar value. Where two headings read alike, the source gives them in different places. Numbered stars: 1 amine (or outer) side, 2 acyl side, 3 side chain; on linkers, the order of the positions; unused ones are H or OH. Bridge positions count the residues as written; N and C are the ends. Square brackets hold non-standard residues; d marks the D form. Peptide text beside a SMILES is read from it. Trp(7-Me) = Cc1cccc2c(C[C@H](N)C(=O)O)c[nH]c12; Trp(2-Me) = Cc1[nH]c2ccccc2c1C[C@H](N)C(=O)O; Abu(4-yl) = O=C([C@H](CC[*:3])N[*:1])[*:2]; 2Nal = N[C@@H](Cc1ccc2ccccc2c1)C(=O)O; AEF = NCCOc1ccc(C[C@H](N)C(=O)O)cc1; Cit = NC(=O)NCCC[C@H](N)C(=O)O; Pen = CC(C)(S)[C@H](N)C(=O)O; αMeK = C[C@](N)(CCCCN)C(=O)O; Aib = CC(C)(N)C(=O)O

Experiments:
IL-23R = molecular target: T1, IL-23R (Homo sapiens, UniProt Q5VWK5); assay: DB cells IL23R pSTAT3 cell assay (pStat3 HTRF); format: cell-based
T1 sequence (Q5VWK5 24-629): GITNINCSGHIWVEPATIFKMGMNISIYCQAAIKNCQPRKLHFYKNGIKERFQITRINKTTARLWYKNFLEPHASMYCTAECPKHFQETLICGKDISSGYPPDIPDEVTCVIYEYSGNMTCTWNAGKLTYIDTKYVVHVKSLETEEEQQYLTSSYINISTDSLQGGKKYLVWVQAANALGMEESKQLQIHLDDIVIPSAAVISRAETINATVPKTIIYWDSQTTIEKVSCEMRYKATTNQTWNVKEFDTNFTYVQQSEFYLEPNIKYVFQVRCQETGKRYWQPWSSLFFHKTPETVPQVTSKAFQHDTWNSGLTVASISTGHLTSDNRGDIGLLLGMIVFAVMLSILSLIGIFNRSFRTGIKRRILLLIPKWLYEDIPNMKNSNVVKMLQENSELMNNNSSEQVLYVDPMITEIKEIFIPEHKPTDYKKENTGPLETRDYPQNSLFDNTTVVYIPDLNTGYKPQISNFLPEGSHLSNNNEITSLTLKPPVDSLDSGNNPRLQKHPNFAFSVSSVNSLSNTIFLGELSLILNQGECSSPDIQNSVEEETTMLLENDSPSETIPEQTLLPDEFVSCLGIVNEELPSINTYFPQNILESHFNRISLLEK
Excerpt: Human ELISA indicates the IL23-IL23R competitive binding assay described below, Rat ELISA indicates the rat IL-23R competitive binding ELISA assay described below, and pStat3HTRF indicates the DB cells IL-23R pSTAT3 cell assay described below. The peptides depicted in Table E1 are cyclized via a disulfide bridge formed between two Pen residues in these peptides. The peptides depicted in Table E2 are cyclized via a thioether bond between the indicated amino acid residues. Table E2 provides an illustrative structure depicting thioether cyclization, which is indicated in the table by the term “cyclo,” with the cyclic region bracketed immediately following the term “cyclo.” For certain peptides, the residue Abu is present where indicated, whereas in other embodiments, e.g., those related to the non-cyclized form, the Abu may be referred to as a hSer(Cl) or homoSer residue.
DB Cells IL23R pSTAT3 Cell Assay
IL-23 plays a central role in supporting and maintaining Th17 differentiation in vivo. This process is thought to be mediated primarily through the Signal Transducer and Activator of Transcription 3 (STAT3), with phosphorylation of STAT3 (to yield pSTAT3) leading to upregulation of RORC and pro-inflammatory IL-17. This cell assay examines the levels of pSTAT3 in IL-23R-expressing DB cells when stimulated with IL-23 in the presence of test compounds. Serial dilutions of test peptides and IL-23 (Humanzyme #HZ-1261) at a final concentration of 0.5 nM, were added to each well in a 96 well tissue culture plate (Corning #CLS3894). DB cells (ATCC #CRL-2289), cultured in RPMI-1640 medium (Thermo Scientific #11875093) supplemented with 10% FBS, were added at 5×10E5 cells/well and incubated for 30 minutes at 37° C. in a 5% CO2 humidified incubator. Changes in phospho-STAT3 levels in the cell lysates were detected using the Cisbio HTRF pSTAT3 (Tyr705) Cellular Assay Kit (Cisbio #62AT3PEH), according to manufacturer's Two Plate Assay protocol.

in vitro [1] = conditions: human, 20% fecal homogenate (supernatant), anaerobic, pH 6.8
Description: Fecal homogenate (20%) was prepared by adding 4 mL of growth medium (1 liter contains 2 g peptone water powder, 2 g yeast extract, 0.1 g NaCl, 0.04 g KH2PO4, 0.01 g CaCl2·6H2O, 0.01 g MgSO4·7H2O, 2 mL Tween 80, 0.5 g bile salts, 0.5 g L-cysteine HCl, 2 g NaHCO3, and 10 μL Vitamin K, pH adjusted to 6.8, and sterilized by filtration through a 0.22 μm filter) to every gram of feces (pooled freshly collected human or cynomolgus monkey feces). The suspension was vortexed to break up large clumps, and homogenized using a bead mill homogenizer. Centrifuged the homogenate at 2800×g for 15 min. The supernatant is taken out and used for incubations. DMSO stocks (10 mM) were first prepared for the test compounds. Incubations were performed in an anaerobic chamber conditioned at 37° C. Aliquots of the DMSO solutions were dosed into 1.0 mL aliquots of 20% fecal homogenate, which are pre-warmed to 37° C. The final test compound concentration was 20 μM. At each timepoint (0, 20 min, 1, 3, 6, or 24 hours), 100 μL aliquot of each incubation mixture is taken out and added to separate tubes containing 300 μL of 50% acetonitrile/50% methanol and an internal standard to terminate the reaction. Samples were taken out of the anaerobic chamber and stored at 4° C. until the end of the experiment. After the final timepoint is sampled, the tubes were mixed and then centrifuged at 3,000 rpm for 10 minutes. Aliquots of the supernatant were removed, diluted 1:1 into distilled water containing 0.1% formic acid, and analyzed by LC/MS/MS. Percent remaining at each timepoint was calculated based on the peak area response ratio of test to compound to internal standard. Time 0 was set to 100%, and all later timepoints were calculated relative to time 0. Half-lives were calculated by fitting to a first-order exponential decay equation using Graphpad or Excel.

in vitro [2] = conditions: cynomolgus monkey, 20% fecal homogenate (supernatant), anaerobic, pH 6.8
[3] = Table E3, DB cells, IL-23 0.5 nM, 30 minutes at 37° C., read-out: pStat3 HTRF (IC50)

| Structure (SMILES) | pIC50 (IL-23R; [3]) | half-life at 20 μM (in vitro [1]) [h] | half-life at 20 μM (in vitro [2]) [h] | pIC50 (IL-23R) |
| --- | --- | --- | --- | --- |
| CC(=O)NCCCC[C@H](NC(=O)[C@](C)(CC(C)C)NC(=O)[C@H](Cc1ccc2ccccc2c1)NC(=O)[C@H](Cc1ccc(OCCN)cc1)NC(=O)[C@H]1NC(=O)[C@H](CCC(N)=O)NC(=O)[C@H](Cc2c[nH]c3c(C)cccc23)NC(=O)[C@H]([C@@H](C)O)NC(=O)[C@H](CC(N)=O)NC(=O)[C@@H](NC(C)=O)C(C)(C)SSC1(C)C)C(=O)N1CCC[C@@H]1C(=O)NCCC(N)=O [compound 212] | 7.00 to 8.00 | > 24 | > 24 |  |
| CC(=O)N[C@H](CCCNC(=N)N)C(=O)N[C@H]1CCSC[C@@H](C(=O)N[C@@H](Cc2ccc(OCCN)cc2)C(=O)N[C@@H](Cc2ccc3ccccc3c2)C(=O)NC2(C(=O)N[C@@H](CCC(=O)O)C(=O)N[C@@H](CC(N)=O)C(=O)N[C@@H](CC(N)=O)C(N)=O)CCOCC2)NC(=O)[C@H](CCC(N)=O)NC(=O)[C@H](Cc2c[nH]c3c(C)cccc23)NC(=O)[C@H]([C@@H](C)O)NC(=O)[C@H](CCC(N)=O)NC1=O [compound 27] |  |  | 3 | > 9.00 |
| COc1cccc2[nH]cc(C[C@@H]3NC(=O)[C@H]([C@@H](C)O)NC(=O)[C@H](CC(N)=O)NC(=O)[C@@H](NC(C)=O)C(C)(C)SSC(C)(C)[C@@H](C(=O)N[C@@H](Cc4ccc(OCCN)cc4)C(=O)N[C@@H](Cc4ccc5ccccc5c4)C(=O)N[C@@](C)(CCCCN)C(=O)N[C@@H](CCCCNC(C)=O)C(=O)N[C@@H](CC(N)=O)C(=O)NCCC(N)=O)NC(=O)[C@H](CCC(N)=O)NC3=O)c12 [compound 229] | 7.00 to 8.00 | > 24 | 7 |  |
| CC(=O)NCCCC[C@H](NC(=O)[C@](C)(CCCCN)NC(=O)[C@H](Cc1ccc2ccccc2c1)NC(=O)[C@H](Cc1ccc(OCCN)cc1)NC(=O)[C@H]1NC(=O)[C@H](CCC(N)=O)NC(=O)[C@H](Cc2c[nH]c3cc(C)ccc23)NC(=O)[C@H]([C@@H](C)O)NC(=O)[C@H](CC(N)=O)NC(=O)[C@@H](NC(C)=O)C(C)(C)SSC1(C)C)C(=O)N[C@@H](CC(N)=O)C(=O)NCCC(N)=O [compound 230] | 7.00 to 8.00 | > 24 | 10 |  |
| CC(=O)NCCCC[C@@H]1NC(=O)[C@H](Cc2c[nH]c3c(C)cccc23)NC(=O)[C@H]([C@@H](C)O)NC(=O)[C@H](CCC(N)=O)NC(=O)[C@@H](NC(=O)[C@@H](CCCNC(=N)N)NC(C)=O)CCSC[C@@H](C(=O)N[C@@H](Cc2ccc(OCCN)cc2)C(=O)N[C@@H](Cc2ccc3ccccc3c2)C(=O)N[C@@](C)(CCCCN)C(=O)N[C@@H](CCCCNC(C)=O)C(=O)N[C@@H](CC(N)=O)C(N)=O)NC1=O [compound 326] (Ac-[dR][Abu(4-yl)]QT[Trp(7-Me)]K(Ac)C[AEF][2Nal][αMeK]K(Ac)N-NH2; thioether 2-7) | 7.00 to 8.00 | 11 | 11 |  |
| CC(=O)NCCCC[C@H](NC(=O)C1(NC(=O)[C@H](Cc2ccc3ccccc3c2)NC(=O)[C@H](Cc2ccc(OCCN)cc2)NC(=O)[C@@H]2CSCC[C@H](NC(C)=O)C(=O)N[C@@H](CCC(N)=O)C(=O)N[C@@H]([C@@H](C)O)C(=O)N[C@@H](Cc3c[nH]c4c(C)cccc34)C(=O)N[C@@H](CCC(N)=O)C(=O)N2)CCOCC1)C(=O)N[C@@H](CC(N)=O)C(=O)N[C@@H](CC(N)=O)C(N)=O [compound 30] |  |  |  | 8.00 to 9.00 |
| CC(=O)N[C@H](CCCNC(=N)N)C(=O)N[C@H]1CCSC[C@@H](C(=O)N[C@@H](Cc2ccc(OCCN)cc2)C(=O)N[C@@H](Cc2ccc3ccccc3c2)C(=O)NC2(C(=O)N[C@@H](CCC(=O)O)C(=O)N[C@@H](CC(N)=O)C(=O)NCCC(N)=O)CCOCC2)NC(=O)[C@H](CCC(N)=O)NC(=O)[C@H](Cc2c[nH]c3c(C)cccc23)NC(=O)[C@H]([C@@H](C)O)NC(=O)[C@H](CCC(N)=O)NC1=O [compound 203] | 8.00 to 9.00 |  |  |  |
| CC(=O)NCCCC[C@H](NC(=O)[C@](C)(CCCCN)NC(=O)[C@H](Cc1ccc2ccccc2c1)NC(=O)[C@H](Cc1ccc(OCCN)cc1)NC(=O)[C@H]1NC(=O)[C@H](CCC(N)=O)NC(=O)[C@H](Cc2c[nH]c3ccc(C#N)cc23)NC(=O)[C@H]([C@@H](C)O)NC(=O)[C@H](CC(N)=O)NC(=O)[C@@H](NC(C)=O)C(C)(C)SSC1(C)C)C(=O)N[C@@H](CC(N)=O)C(=O)N[C@H](CCCCN)C(N)=O [compound 296] | 8.00 to 9.00 |  |  |  |
| CC(=O)NCCCC[C@H](NC(=O)[C@](C)(CCCCN)NC(=O)[C@H](Cc1ccc2ccccc2c1)NC(=O)[C@H](Cc1ccc(OCCN)cc1)NC(=O)[C@H]1NC(=O)[C@H](CCCCNC(=O)[C@H](C)N)NC(=O)[C@H](Cc2c[nH]c3c(C)cccc23)NC(=O)[C@H]([C@@H](C)O)NC(=O)[C@H](CC(N)=O)NC(=O)[C@@H](NC(C)=O)C(C)(C)SSC1(C)C)C(=O)N[C@@H](CC(N)=O)C(=O)N[C@H](CC(C)C)C(N)=O [compound 314] | 8.00 to 9.00 |  |  |  |
| CC(=O)NCCCC[C@H](NC(=O)[C@](C)(CC(C)C)NC(=O)[C@H](Cc1c[nH]c2ccc(Cl)cc12)NC(=O)[C@H](Cc1ccc(OCCN)cc1)NC(=O)[C@H]1NC(=O)[C@H](CCC(N)=O)NC(=O)[C@H](Cc2c[nH]c3ccccc23)NC(=O)[C@H]([C@@H](C)O)NC(=O)[C@H](CC(N)=O)NC(=O)[C@@H](NC(C)=O)C(C)(C)SSC1(C)C)C(=O)N[C@@H](CC(N)=O)C(=O)N[C@@H](CC(N)=O)C(N)=O [compound 12] |  |  |  | < 7.00 |
| CC(=O)NCCCC[C@@H]1NC(=O)[C@H](Cc2c[nH]c3c(C)cccc23)NC(=O)[C@H]([C@@H](C)O)NC(=O)[C@H](CC(N)=O)NC(=O)[C@@H](NC(C)=O)C(C)(C)SSC(C)(C)[C@@H](C(=O)N[C@@H](Cc2ccc(OCCN)cc2)C(=O)N[C@@H](Cc2c(C)[nH]c3ccccc23)C(=O)N[C@@](C)(CCCCN)C(=O)N[C@@H](CCCCNC(C)=O)C(=O)N[C@@H](CC(N)=O)C(=O)N[C@H](CCCCN)C(N)=O)NC1=O [compound 353] (Ac-[Pen]NT[Trp(7-Me)]K(Ac)[Pen][AEF][Trp(2-Me)][αMeK]K(Ac)N[dK]-NH2; disulfide 1-6) | > 9.00 |  |  |  |
| CC(=O)NCCCC[C@H](NC(=O)[C@](C)(CCCCN)NC(=O)[C@H](Cc1ccc2ccccc2c1)NC(=O)[C@H](Cc1ccc(OCCN)cc1)NC(=O)[C@H]1NC(=O)[C@H](CCCNC(N)=O)NC(=O)[C@H](Cc2c[nH]c3c(C)cccc23)NC(=O)[C@H]([C@@H](C)O)NC(=O)[C@H](CC(N)=O)NC(=O)[C@@H](NC(C)=O)C(C)(C)SSC1(C)C)C(=O)N[C@@H](CC(N)=O)C(=O)NC(C)(C)C(=O)N[C@@H](CCCNC(=N)N)C(N)=O [compound 343] (Ac-[Pen]NT[Trp(7-Me)][Cit][Pen][AEF][2Nal][αMeK]K(Ac)N[Aib]R-NH2; disulfide 1-6) | 8.00 to 9.00 |  |  |  |
| COc1cccc2[nH]cc(C[C@H](NC(=O)[C@H](Cc3ccc(OCCN)cc3)NC(=O)[C@H]3NC(=O)[C@H](CCC(N)=O)NC(=O)[C@H](Cc4c[nH]c5ccccc45)NC(=O)[C@H]([C@@H](C)O)NC(=O)[C@H](CC(N)=O)NC(=O)[C@@H](NC(C)=O)C(C)(C)SSC3(C)C)C(=O)N[C@@](C)(CC(C)C)C(=O)N[C@@H](CCCCNC(C)=O)C(=O)N[C@@H](CC(N)=O)C(=O)N[C@@H](CC(N)=O)C(N)=O)c12 [compound 15] |  |  |  | < 7.00 |
| CC(=O)NCCCC[C@H](NC(=O)[C@](C)(CC(C)C)NC(=O)[C@H](Cc1ccc2ccccc2c1)NC(=O)[C@H](Cc1ccc(OCCN)cc1)NC(=O)[C@H]1NC(=O)[C@H](CCC(N)=O)NC(=O)[C@H](Cc2c[nH]c3ccc(Cl)cc23)NC(=O)[C@H]([C@@H](C)O)NC(=O)[C@H](CC(N)=O)NC(=O)[C@@H](NC(C)=O)C(C)(C)SSC1(C)C)C(=O)N[C@@H](CC(N)=O)C(=O)N[C@@H](CC(N)=O)C(N)=O [compound 1] |  |  |  | 7.00 to 8.00 |
